Results as given in patent publication EP1247803A2, “Indolinone compounds suitable for modulation of protein kinases” (Sugen, Inc., priority 1996, dated 1998).

Assays:
EGFR = target: T1, EGFR (Homo sapiens, UniProt P00533); assay: EGFR ELISA assay (in vitro kinase activity, EGFR captured from A431 cell lysate); type: biochemical; parameters: concentration or dose not given beside the values
T1 construct: Add 7 ug A431 cell lysate per well (EGFR source); endogenous in cells; host or cells: A431
How it was run: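 Receptor autophosphorylation was read by ELISA: anti-phosphotyrosine serum and an HRP-linked secondary with ABTS substrate, absorbance at 410 nm (reference 630 nm). The reaction ran 5 min with 3 µM ATP and 5 mM MnCl2 and was quenched by 20 mM EDTA. Compounds were first incubated 30 min with antibody-captured EGFR from A431 cell lysate.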

MET = MET biochemical kinase assay; parameters: species or system human; concentration or dose not given beside the values
How it was run: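 Lysate-derived MET, or chimeric receptors, is immobilised on plates through an antibody to the human MET cytoplasmic region. Compounds are added along with kinase buffer supplying ATP and divalent metal ions, and receptor autophosphorylation is quantified by anti-phosphotyrosine ELISA.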

T1 sequence (P00533 25-1210): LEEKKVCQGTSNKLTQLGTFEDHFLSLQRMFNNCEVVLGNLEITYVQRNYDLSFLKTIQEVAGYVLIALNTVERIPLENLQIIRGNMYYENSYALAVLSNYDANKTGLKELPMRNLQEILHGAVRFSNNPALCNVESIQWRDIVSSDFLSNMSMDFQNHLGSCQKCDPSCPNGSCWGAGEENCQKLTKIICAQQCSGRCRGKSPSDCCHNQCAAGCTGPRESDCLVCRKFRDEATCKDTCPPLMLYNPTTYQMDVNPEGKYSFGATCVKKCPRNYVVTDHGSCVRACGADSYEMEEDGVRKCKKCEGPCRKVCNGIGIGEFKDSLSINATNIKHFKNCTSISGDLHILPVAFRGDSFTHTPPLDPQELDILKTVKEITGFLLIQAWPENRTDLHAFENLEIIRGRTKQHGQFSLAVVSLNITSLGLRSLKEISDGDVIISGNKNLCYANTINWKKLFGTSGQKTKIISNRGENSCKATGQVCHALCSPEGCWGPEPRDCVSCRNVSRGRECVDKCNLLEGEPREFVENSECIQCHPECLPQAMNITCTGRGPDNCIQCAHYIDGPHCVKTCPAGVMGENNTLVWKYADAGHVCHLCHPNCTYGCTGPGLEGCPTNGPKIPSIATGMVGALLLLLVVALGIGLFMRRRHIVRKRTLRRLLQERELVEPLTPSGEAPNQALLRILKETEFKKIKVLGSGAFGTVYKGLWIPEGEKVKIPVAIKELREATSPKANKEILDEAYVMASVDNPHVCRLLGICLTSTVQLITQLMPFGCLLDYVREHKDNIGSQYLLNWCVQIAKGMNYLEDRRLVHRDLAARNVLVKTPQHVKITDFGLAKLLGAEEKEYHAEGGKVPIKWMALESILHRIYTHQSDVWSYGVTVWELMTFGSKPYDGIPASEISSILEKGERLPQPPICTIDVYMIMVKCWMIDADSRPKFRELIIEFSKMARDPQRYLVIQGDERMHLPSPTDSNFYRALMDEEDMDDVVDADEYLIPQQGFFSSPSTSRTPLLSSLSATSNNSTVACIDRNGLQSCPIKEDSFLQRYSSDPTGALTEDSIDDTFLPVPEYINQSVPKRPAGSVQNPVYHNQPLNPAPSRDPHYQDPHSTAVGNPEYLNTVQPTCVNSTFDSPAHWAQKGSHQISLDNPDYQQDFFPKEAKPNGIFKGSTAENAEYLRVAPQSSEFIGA

SMILES | Biochem EGFR %Inhibition (EGFR) | Met Kinase % Inhibition (MET)
O=C1Nc2ccc(I)cc2C1=Cc1cc(O)c2c(c1O)CCCC2 [10726/B07] | 72.4% | 98.5%
Cc1cc(C=C2C(=O)Nc3ccc(S(=O)(=O)Nc4ccc(C(F)(F)F)cc4)cc32)[nH]n1 [10725/E05] | -5.5% | 28.2%
CNS(=O)(=O)c1ccc2c(c1)C(=Cc1ccc(C)o1)C(=O)N2 [10725/D04] | 4.3% | 55.1%
O=C1Nc2ccc(S(=O)(=O)Nc3ccc(C(F)(F)F)cc3)cc2C1=Cc1ccc(N2CCOCC2)cc1 [10725/E08] | 14.2% | 39.7%
Cc1ccc(C=C2C(=O)Nc3ccc(CCCl)cc32)o1 [10725/G04] | -12.3% | 47.1%
COc1ccc(Br)c(C=C2C(=O)Nc3ccc(S(=O)(=O)N4CCOCC4)cc32)c1O [10725/F03] | -36.2% | 63.2%
CCOc1ccccc1C=C1C(=O)Nc2ccc(CCCl)cc21 [10717/G02] | 32.3% | 30.7%
COC(=O)Cc1c(Cl)[nH]c(C=C2C(=O)Nc3ccc(S(=O)(=O)Nc4ccc(C(F)(F)F)cc4)cc32)c1C(=O)OC [10725/E09] | 31.4% | 22.4%
O=C1Nc2ccccc2C1=C1C(=O)Nc2c(Br)cc(Br)cc21 [10726/A09] | -6.3% | 70.8%
Cc1cc(C=C2C(=O)Nc3ccc(Br)c(C)c32)[nH]n1 [10725/C05] | -21.9% | 31.7%
CNS(=O)(=O)c1ccc2c(c1)C(=Cc1cc(C)n[nH]1)C(=O)N2 [10725/D05] | -19.7% | 24.5%
COc1ccc(C=C2C(=O)Nc3ccc(I)cc32)cc1 [10726/B11] | 39.4% | 64.4%
O=CN1CCN(c2ccc(C=C3C(=O)Nc4ccc(S(=O)(=O)Nc5ccc(C(F)(F)F)cc5)cc43)cc2)CC1 [10725/E07] | 12.5% | 45.3%
O=C1Nc2ccc(F)cc2C1=C1C(=O)Nc2c(Br)cc(Br)cc21 [10726/A08] | -28.4% | 63.1%
Cc1c(Br)ccc2c1C(=Cc1c(Br)cnn1-c1ccc(Cl)cc1)C(=O)N2 [10725/C10] | 5.3% | -0.6%
O=C1Nc2ccc(S(=O)(=O)N3CCOCC3)cc2C1=Cc1sccc1Br [10725/F02] | -3.7% | 27.8%
O=C1Nc2ccc(I)cc2C1=Cc1ccc(Br)o1 [10726/B05] | 49.0% | 96.8%
COC(=O)Cc1c(Cl)[nH]c(C=C2C(=O)Nc3ccc(S(=O)(=O)N4CCOCC4)cc32)c1C(=O)OC [10725/F09] | 32.2% | 48.5%
O=CN1CCN(c2ccc(C=C3C(=O)Nc4ccc(CCCl)cc43)cc2)CC1 [10725/G07] | -25.8% | 39.7%
Cc1c(Br)ccc2c1C(=Cc1cc(O)c3c(c1O)CCCC3)C(=O)N2 [10726/C07] | 40.8% | 84.9%
O=C1Nc2ccc(S(=O)(=O)Nc3ccc(C(F)(F)F)cc3)cc2C1=Cc1c(Br)cnn1-c1ccc(Cl)cc1 [10725/E10] | 6.1% | -4.7%
COc1cccc(O)c1C=C1C(=O)Nc2ccc(S(=O)(=O)N3CCOCC3)cc21 [10717/F10] | -26.4% | 54.6%
O=C1Nc2ccc(CCCl)cc2C1=Cc1sccc1Br [10725/G02] | -20.5% | 30.8%
COc1ccc(Br)c(C=C2C(=O)Nc3ccc(CCCl)cc32)c1O [10725/G03] | -2.5% | 58.6%
COC(=O)Cc1c(Cl)[nH]c(C=C2C(=O)Nc3ccc(Br)c(C)c32)c1C(=O)OC [10725/C09] | 23.6% | 24.1%
COC(=O)Cc1c(Cl)[nH]c(C=C2C(=O)Nc3ccc(CCCl)cc32)c1C(=O)OC [10725/G09] | 6.5% | 4.7%
O=CN1CCN(c2ccc(C=C3C(=O)Nc4ccc(S(=O)(=O)N5CCOCC5)cc43)cc2)CC1 [10725/F07] | 16.4% | 67.8%
O=C1Nc2ccc(S(=O)(=O)N3CCOCC3)cc2C1=Cc1ccc(N2CCOCC2)cc1 [10725/F08] | 15.4% | 72.2%
O=C1Nc2ccc(S(=O)(=O)N3CCOCC3)cc2C1=Cc1ccc(Br)cc1 [10717/F08] | -23.4% | 64.0%
